# Experimental data from US8410138B2, “Compounds for activating TGF-beta signaling” (The Board of Trustees of the Leland Stanford Junior …, priority 2007, dated 2013).
# Where two headings read alike, the source gives them in different places.
# Assays:
# [1] = tested on: TGF-β reporter gene in hippocampus; assay: Luciferase activity in SBE-luc mouse hippocampus; format: in vivo; conditions: 30 mg/kg i.p.; five hours after injection; SBE-luc mice
# Protocol: In another experiment performed to asses the ability of the present compounds to activate TGF-β signaling in animals, SBE-luc mice were given either PBS or the 11H compound via i.p. injections as described in Example 10. Following drug or PBS injection, mice were anesthetized with chloral hydrate and perfused with saline. Brains were dissected and snap-frozen. Hippocampal tissues were assayed for luciferase activity.
# (§1) SBE-luc mice (T9-7F), 2-4 months of age, 4-5 mice per group, were given either the 11H compound at 30 mg/kg via i.p. injections, or PBS as a control. The 11H compound was completely dissolved in PBS at the concentration of 3 mg/ml. This working solution was given to mice at 10 μl/g body weight to achieve the desired level of 30 mg/kg. Five hours following drug or PBS injection, mice were anesthetized with chloral hydrate and perfused with saline. Brains were dissected and snap-frozen. Hippocampal tissues were homogenized in 100 μl of 1× luciferase assay buffer and 20 μl of the resulting supernatant was used for luciferase assays.
# [2] = tested on: TGF-β signaling (SBE-SEAP reporter) in MFB-F11 cells; format: cell-based, mouse; conditions: for Relative TGF-β activity, fold change compared with vehicle: cell reporter assay
# Protocol: All compounds were tested twice, in duplicate, using the MFB-F11 cell line. 80 compounds were selected for further study based on induction of the reporter gene in any of the replicates. These compounds were tested again in MFB-F11 or C6-H4 cells, either alone or in the presence of 100 pg/ml of TGF-β1, to test for synergistic activities.
# [3] = Dissolution in PBS; format: physicochemical
# Protocol: as §1
# [4] = tested on: fibroblasts lacking Smad2, Smad3 or Smad4; assay: SBE reporter signaling in fibroblasts lacking elements of the TGF-β signaling pathway; format: cell-based; conditions: Smad2 (FIG. 2B) or Smad3 knock-out fibroblasts
# Text: To understand how the TGF-β signaling agonists function and identify molecular genetic targets in cells, fibroblasts lacking different elements of the TGF-β3 signaling pathway, including Smad2, Smad3, and Smad4, were used in combination with plasmids encoding different inhibitors of the TGF-β signaling pathway to study TGF-β agonists in different backgrounds. For reference, the canonical TGF-β signaling pathway is illustrated in FIG. 2A. The biological actions of TGF-β1 are mediated through interactions with the type 2 TGF beta receptor (TBR2) 2 and the type I TGF beta receptor (TBRI) 3. Betaglycan 4 may participate in the binding of TGF-β1. Receptor activation leads to the phosphorylation of Smad proteins, such as Smad 2/3 5 and Smad 4 6, which translocate to the nucleus 7 to bind to the Smad DNA-binding element (SBE) 8, present in numerous genes, in combination with transcription factors (TF) 9. Smad 7 10 is inhibitory with respect to Smad 2/3 5 phosphorylation. Alternative signaling involves p38 11 and the MAP kinase pathway. TAB1 12 activates TAK1 13, which activates p38 11.
# Because Smad2 and Smad3 can substitute for each other, results with Smad2 or Smad3 knock-out fibroblasts were more difficult to interpret. Nonetheless, the synergistic effect of TGF-β1 and 11H was blocked in the absence of Smad2 (FIG. 2B) or Smad3 (not shown). In these assays, signaling is reported via SBE elements, which are specific elements that bind Smad proteins. Thus, the 11H compound must signal through this element. Without being limited to theory, it is believed that the 3A compound functions as a competitive agonist of Smad binding to the SBE, representing a novel target and mode of action.
# [5] = tested on: TGF-β signaling (SBE-luc reporter) in brain; assay: Bioluminescence and tissue luciferase in SBE-luc reporter mice; format: in vivo, mouse; conditions: i.p. or s.q. injection; FIG. 3D
# Text: Transgenic mice harboring the SBE-luc reporter gene were generated and used to test the present compositions in vivo. These “reporter mice” mice express SBE-luc (i.e., “the transgene”) in all cells of the body.^1,54 Intraperitoneal injection of luciferin into SBE-luc mice produces bioluminescence generated by luciferase and photons penetrating the skull can be imaged using sensitive camera systems.^1,54
# To determine whether 3A and its analogs are bioactive in vivo and able to penetrate the blood brain barrier (BBB), TGF-β1, 3A, 22B02, or 13A04 were injected into reporter mice i.p. or s.q. The animals were then sacrificed at the indicated times following injection. […] There was no obvious activation of the reporter in other organs.
# Bioactivity data were confirmed by biochemical measurements of tissue luciferase in hippocampal homogenates (FIG. 3E).
# Two-month old SBE-luciferase transgenic mice receive different concentrations of a test compound either s.q., i.p., or orally by gavage. […] Following administration of the test or control compounds, mice are injected with luciferin i.p. At, e.g., 2, 8, and 16 hours following injection of luciferin, the mice are imaged to detect bioluminescence as described above. Brains may be harvested 16 hours following test compound injection, and may be divided sagittally. […]
# [6] = tested on: primary hippocampal neurons from E16 mouse embryos; format: cell-based; conditions: Aβ oligomers inducing 50-70% cell death; 13A04 3 μM, TGF-β1 10 ng/ml; 24 hours
# Protocol: (§2) FIG. 1H is a graph showing the relative amount of surviving 6-7 DIV hippocampal neurons of E16 mice following exposure to culture medium (CM) alone, 13A04 (3 μM), or CM containing Aβ at 2 or 5 μM with TGF-β1 (10 ng/ml) or 13A04 (3 μM). After 24 hours, cultures were fixed and surviving cells were counted. Data represent mean±SEM, n=3-7 fields counted per plate. All conditions were compared to Aβ using the Mann-Whitney test (* p<0.05, ** p<0.01). FIG. 1I is a graph showing the relative gene expression levels of the indicated TGF-β-responsive genes induced in MFB-F11 fibroblasts stimulated with TGF-β1 (yellow) or 13A04 (blue) for 24 h. mRNA was extracted, labeled and hybridized to gene expression arrays tailored for the TGF-β pathway.
# Moreover, the small-molecule TGF-β agonist was not toxic at 3 μM and 10 μM (not shown).
# Primary mixed neuronal cultures are exposed to Aβ oligomers and treated with compounds (0 to 10 μM concentration) and cell survival is measured using lactate dehydrogenase (LDH) release or by counting 4,6-diamidino-2-phenylindole (DAPI)-stained cells. […] Neuritic dystrophy in 21 DIV neurons can also be measured by quantifying the tortuosity of neurites as described by Ferreira et al.^70 and modified by others. […] Further incubation of these cells with the present compounds provides a sensitive assay for neuroprotection.
# [7] = tested on: TGF-β-responsive genes in MFB-F11 fibroblasts; assay: Microarray of TGF-β pathway gene expression in tgfb1−/− fibroblasts; format: cell-based, mouse; conditions: 1, 5, 24 hours
# Protocol: as §2
# A microarray assay was used to identify changes in gene expression caused by stimulating tgfb1^−/− fibroblasts with TGF-β1 or 13A04. mRNA was harvested 1, 5, and 24 hours following stimulation of tgfb1^−/− fibroblasts with TGF-β1 (or control) and analyzed for differential expression of 128 genes related to TGF-β signaling, using a commercially available filter array (Superarray Bioscience Corp.; FIG. 1I). […]
# [8] = tested on: TGF-β signaling in hippocampal neurons; assay: RFP immunohistochemistry in SBE-lucRT reporter mice; format: in vivo, mouse
# Text: To study TGF-β signaling at the cellular level, additional reporter mice were generated, which express a fusion protein consisting of luciferase, red fluorescent protein […], and thymidine kinase (TK) under control of the SBE promoter (i.e., SBE-lucRT mice).
# [9] = tested on: Aβ deposition; assay: APP-T41 mice treated for 10 days, Aβ immunostaining; format: in vivo; conditions: 5-month-old APP-T41 mice, i.p. for 10 days
# Protocol: In a further experiment, a group of 5-month-old APP-T41 mice were treated with vehicle or 13A04 (i.p.) for 10 days. At this age, the mice are starting to deposit Aβ which can be quantified in brain sections using Aβ immunostaining.
# Transgenic mice that overproduce FAD-mutant human APP reproduce important aspects of AD, including amyloid plaques, neurodegeneration, and cognitive deficits. APP-T41 mice which overexpress APP751^V717I, K670M/N671L in neurons develop amyloid pathology, neurodegeneration, and cognitive deficits.^43,44 Mice overexpressing human tau protein associated with familial forms of fronto-temporal dementia (a dementia characterized by extensive tangle formation) develop neurofibrillary tangles similar to the ones observed in AD and suffer from locomotor deficits around 10 months of age.^45 APP-T41 and Prp-tau^P301L mice^45 can be used to determine the in vivo efficacy of test compounds in treating AD-like diseases.
# Compounds can also be tested for their ability to reverse cognitive deficits.
# [10] = tested on: HDAC 1 and 2; conditions: read-out: 1050 (HDAC 1 and 2 inhibition); cited from earlier work
# [11] = tested on: HDAC activity in HeLa nuclear extracts (HDAC 1, HDAC 2, SIRT 1); conditions: FIG. 8B
# Text: A commercially available assay was used to measure HDAC inhibitory activity of the present small-molecule compounds.
compound,measurement,setting,value
"C/C(=C\c1ccccc1)CN(CC1CCNCC1)C(=O)NC1CCCCC1 [Compound 11H, (E)-3-cyclohexyl-1-(2-methyl-3-phenylallyl)-1-(piperidin-4-ylmethyl)urea]",Activation of the TGF-β reporter gene in hippocampi compared to PBS,[1],twice the levels
same,TGF-β agonist activity,[2]; data of FIGS. 1A-1J,TGF-β-agonists
same,Concentration completely dissolved in PBS,[3],≥ 3000 µg/mL
same,Synergistic effect with TGF-β1 in the absence of Smad2 or Smad3,[4],blocked
CC(C)CN(CC(=O)N(CCc1c[nH]c2ccccc12)Cc1ccccc1)C(=O)c1ccco1 [Compound 13A04],Reporter activation (bioluminescence) in living mice,[5],dose-dependent manner
same,Protection of neurons against Aβ toxicity (survival),[6],consistently protected neurons and increased survival
same,"Expression of TGF-β signaling genes (Fos, Jun, Myc, Smad1, Smad2, Smad3, Interleukin-6)",[7],induced
same,"Relative TGF-β activity, fold change compared with vehicle",[2]; 3 μM,2.5 fold
same,"Relative TGF-β activity, fold change compared with vehicle",[2]; 10 μM,6.3 fold
same,"Relative TGF-β activity, fold change compared with vehicle",[2]; 30 μM,17.6 fold
same,"Relative TGF-β activity, fold change compared with vehicle",[2]; 100 μM,20.9 fold
same,TGF-β signaling in the vasculature,[8],No activation
same,Reporter gene and TGF-β signaling in hippocampal neurons,[8]; RFP immunohistochemistry,activates the reporter gene and TGF-β signaling in hippocampal neurons
same,Tolerability / side effects,[9],well tolerated and no side effects were observed
same,Aβ deposition versus controls,[9]; not statistically significant,trend towards reduced Aβ deposition
N#Cc1ccc(-c2ccc(OCCCCCCC(=O)NO)cc2)cc1 [Compound A-161906],IC50,[10],9 nM
trichostatin A,Reduction of HDAC activity,[11],> 90%
